Laboratory results: patent US12403111B2, “Compositions and methods for treating neurodevelopmental disorders” (SynGAP Research Fund, priority 2024, dated 2025)
“Also recorded” adds a separate entry of the source.

Tests used:
[1] = system: animals following unilateral labyrinthectomy; details: only minor effects on normal vestibular function; cited from earlier work
[2] = system: patients with cerebellar ataxia; details: 12 out of 20 individuals; cited from earlier work
mTORC1 = mTORC1 (Homo sapiens, UniProt P42345); details: cited from earlier work
[3] = system: raskol Drosophila eye phenotype; assay: Eye phenotype recovery assay (eye size) over several drug concentrations, SYNGAP1 (raskol) knockdown flies; format: in vivo, Drosophila melanogaster; details: for Effect on eye phenotype recovery (eye size): Example 38, multiple drug dilutions vs control
Text: Increased eye size over control (dark grey) indicates improved phenotype. […]
FIG. 42B depicts the eye size effect of NADL, L-Leucine and beta-hydroxyisovaleric acid on raskol Drosophila eye phenotype over multiple drug dilutions from Example 38.
A prioritized list of top hits was developed to further validate. Priority was place on actionable, safe, and biologically relevant drugs. To validate a top hit, the effect of each drug was tested over three doses. Three concentrations (1, 5, and 25 uM) were compared to a no drug control.

[4] = system: mice with experimental traumatic brain injury; details: cited from earlier work
[5] = system: tyrosine catabolic process; assay: RNAseq of untreated vs NALL-treated raskol Drosophila; format: in vivo, Drosophila melanogaster; details: NALL-treated vs untreated raskol flies; TAT, HPD, FAA
Procedure: Enzymes TAT, HPD, FAA highlight the differences in RNA expression in the presence of NALL treatment; molecules are all associated with the tyrosine catabolic process.
Finally, RNAseq was performed to compare gene regulation differences between raskol Drosophila untreated and NALL-treated flies.

LAT1 = LAT1 (Homo sapiens, UniProt Q01650); details: cited from earlier work
Sequence of LAT1 (Q01650 whole entry, species assumed): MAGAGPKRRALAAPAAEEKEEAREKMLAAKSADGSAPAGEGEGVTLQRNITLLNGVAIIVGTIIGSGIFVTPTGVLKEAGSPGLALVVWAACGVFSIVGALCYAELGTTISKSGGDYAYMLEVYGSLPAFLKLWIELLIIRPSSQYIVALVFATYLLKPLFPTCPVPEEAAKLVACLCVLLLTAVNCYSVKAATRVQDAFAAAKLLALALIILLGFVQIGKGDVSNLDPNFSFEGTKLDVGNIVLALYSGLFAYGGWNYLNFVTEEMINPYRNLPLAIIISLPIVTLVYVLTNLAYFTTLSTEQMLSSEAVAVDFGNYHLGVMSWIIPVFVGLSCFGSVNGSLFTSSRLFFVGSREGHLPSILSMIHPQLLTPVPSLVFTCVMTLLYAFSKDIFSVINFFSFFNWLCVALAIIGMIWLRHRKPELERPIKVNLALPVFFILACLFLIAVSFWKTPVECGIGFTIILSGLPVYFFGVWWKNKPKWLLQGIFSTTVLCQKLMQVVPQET
Sequence of LAT1 (P08195 102-630 partner, species assumed): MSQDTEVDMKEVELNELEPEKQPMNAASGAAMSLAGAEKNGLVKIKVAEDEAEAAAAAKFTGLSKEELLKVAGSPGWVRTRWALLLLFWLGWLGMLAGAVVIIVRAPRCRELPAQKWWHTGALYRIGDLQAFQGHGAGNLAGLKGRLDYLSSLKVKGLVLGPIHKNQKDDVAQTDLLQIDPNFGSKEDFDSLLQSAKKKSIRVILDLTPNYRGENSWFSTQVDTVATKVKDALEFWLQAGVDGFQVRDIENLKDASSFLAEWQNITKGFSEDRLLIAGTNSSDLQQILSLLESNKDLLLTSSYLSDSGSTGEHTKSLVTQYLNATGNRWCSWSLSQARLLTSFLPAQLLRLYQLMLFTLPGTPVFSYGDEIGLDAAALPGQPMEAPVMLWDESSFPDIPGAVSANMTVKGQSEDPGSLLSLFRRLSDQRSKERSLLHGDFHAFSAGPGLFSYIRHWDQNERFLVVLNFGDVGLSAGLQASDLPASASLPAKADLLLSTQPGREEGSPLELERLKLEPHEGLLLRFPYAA

[6] = system: raskol Drosophila eye phenotype; assay: Drug screen (Prestwick Chemical Library) for rescue of degenerate eye in Drosophila model of SYNGAP1; format: in vivo, Drosophila melanogaster; details: screen of over 1520 drugs; Z scores >1 indicated improved phenotype
Text: The invention is also directed in part to a Drosophila melanogaster (fruit fly) model of SYNGAP1. The model is based on eye-specific RNAi knockdown of SYNGAP1, which is called raskol gene in flies. RNAi knockdown of the raskol gene in the eye of Drosophila results in a smaller, degenerate eye (FIG. 1). In one embodiment, the model is used to screen drug that rescue the degenerate eye phenotype in Drosophila melanogaster.
FIG. 7 is a graph of the Z-score of chemical effects on raskol Drosophila eye phenotype. Z scores >1 indicated improved phenotype; Z scores <1 indicated worsened phenotype. The arrow indicates the Z-score positioning of N-Acetyl-L-leucine (NALL).
Drosophila (fruit fly) model of SYNGAP1 was generated. This model is partial loss of function of SYNGAP1, similar to what is observed in humans.
To generate the model, fruit flies were engineered to eliminate SYNGAP1 gene expression in the eye. In flies, the gene is called raskol but herein referred to as SYNGAP1 for clarity. Eye-specific knockdown of SYNGAP1 using RNAi was used. RNAi knockdown of SYNGAP in the eye results in a smaller, disorganized and degenerate eye (FIG. 5).
The model allows for ascertaining therapeutic efficacy of a compound. The efficacy is evidenced by restoration of normal eye appearance upon treatment with the compound. […]

raskol Drosophila = assay: Induced seizures in raskol Drosophila; format: in vivo, Drosophila melanogaster; details: compared to untreated or NADL treated raskol Drosophila
Text: In addition to the degenerate eye phenotype, raskol Drosophila are prone to induced seizures, as compared to wild type Drosophila.

In the case of CC(=O)N[C@@H](CC(C)C)C(=O)O [acetyl-leucine], the Vestibular compensation [1] is given as “accelerate vestibular compensation” and the “Individuals with significant improvements in ataxia” value [2] is given as 60%.

In the case of CC(C)C[C@H](N)C(=O)O [L-Leucine], the “Effect on mTORC1” value (mTORC1) is given as “activates” and the “Effect on eye phenotype recovery (eye size)” value (shortened to “Effect … (eye size)”) [3] is given as “do not have a significant effect; also recorded: neither NADL nor L-Leucine have a significant effect”.

In the case of CC(C)(O)CC(=O)O [beta-hydroxyisovaleric acid, Beta-hydroxyisovaleric acid], the “Effect … (eye size)” value [3] was “do not have a significant effect”.

For CC(=O)N[C@@H](CC(C)C)C(=O)O [NALL, N-acetyl-L-leucine], the “Effect on mTORC1” value (mTORC1) is given as “inhibit or negatively regulate”, the “Autophagy in cortical tissue” value ([4]; reduced accumulation of autophagosome markers vs controls) is given as “increase in autophagy” and the “Motor and cognitive outcomes” value ([4]; treated mice vs controls) is given as “significant improvement in motor and cognitive outcomes”. The “Gene regulation differences by RNAseq” value [5] was “Down regulated genes were enriched for tyrosine catabolic processes”, the “Binding or blocking of LAT1” value (LAT1) was “neither binds nor blocks” and the “Effect … (eye size)” value [3] was “significant effect on phenotype recovery, as was observed with NALL”. The “Eye phenotype in validation of top hit” value ([3]; three concentrations (1, 5, and 25 uM) vs no drug control) was “larger, more organized, less degenerate eye”, the “Z-score of chemical effects on raskol Drosophila eye phenotype” value [6] was 1.35 and the “Recovery time after induced seizures” value (raskol Drosophila) was “faster recovery time”.

For CC(=O)N[C@H](CC(C)C)C(=O)O [NADL, N-acetyl-D-leucine], the “Effect … (eye size)” value [3] was “do not have a significant effect; also recorded: neither NADL nor L-Leucine have a significant effect”.
